Results from patent US11866430B2, “Naphthyridinone compounds useful as T cell activators” (priority 2018, dated 2024).

Tested on: naïve human CD8 T cells
Experiment: Human CD8 T cells pERK Assay
Assay type: cell-based
Conditions: T-cell, read-out: HuCD8 pERK IC50
Experimental: Frozen naïve human CD8 T cells were thawed in AIM-V media, incubated for 2 h in 37° C., and counted. The CD8 positive T cells were added to 384-well tissue culture plate at 20,000 cells per well in AIM-V media. One compound was added to each well, then bead bound anti-human CD3 and anti-CD28 mAb were added at final concentration of 0.3 μg/mL. The cells were incubated at 37° C. for 10 minutes. The reaction was stopped by adding lysis buffer from the AlphaLISA Surefire kit. (Perkin Elmer, cat #ALSU-PERK-A). Lysate (5 μL per well) was transferred into a new 384-well white assay plate for pERK activation measurement.

SMILES	IC50 [nM]
COc1cc(F)ccc1C(c1ccc(F)cc1)N1CCN(c2c([N+](=O)[O-])c(=O)n(C)c3ccc(C#N)nc23)CC1 (single isomer, unassigned) [Example 124, 8-(4-((4-fluoro-2-methoxyphenyl)(4-fluorophenyl)methyl)piperazin-1-yl)-5-methyl-7-nitro-6-oxo-5,6-dihydro-1,5-naphthyridine-2-carbonitrile]	360
C#CCn1c(=O)c([N+](=O)[O-])c(N2CCN(C(c3ccc(F)cc3)C3CC3)CC2)c2nc(C#N)ccc21 (single isomer, unassigned) [Example 143, 8-(4-(cyclopropyl(4-fluorophenyl)methyl)piperazin-1-yl)-7-nitro-6-oxo-5-(prop-2-yn-1-yl)-5,6-dihydro-1,5-naphthyridine-2-carbonitrile]	60
